Target: human PTGES (Homo sapiens (Human), UniProt O14684)
Assay: Human PTGES biochemical enzyme inhibition assay (conversion of PGH2 to PGE2, TR-FRET)
Conditions: Enzymatic conversion of PGH2 to PGE2; read-out: Human PTGES IC50
Procedure: Human PTGES Biochemical Enzyme Inhibition Assay:
PTGES (Microsomal prostaglandin E synthase 1) is an enzyme that converts prostaglandin H2 (PGH2) to prostaglandin E2 (PGE2) in the presence of reduced glutathione (GSH).
Recombinant proteins (human isoforms) of PTGES containing a FLAG tag, expressed in baculovirus infected insect cells (Hi-5) and purified by affinity chromatography was used as enzyme in the assay. Substrate was prostaglandin H2 (Cayman Chemicals).
4 ul of a solution of human PTGES in assay buffer [100 mM sodium phosphate pH 7.2, 2.5 mM Glutathion reduced, 1 mM EDTA, 0.01% BSA, 0.4 mM DTT, 0.15 mM n-dodecylmaltoside] was added to the well containing test compound and incubated for 15-20 minutes to allow binding of the compound to the enzyme prior to the enzymatic reaction. The reaction was started by addition of 1 ul of an ice cold solution containing PGH2 (40 nM in assay buffer resulting in a final concentration of 8 nM PGH2 in the assay). […] The concentration of each isoform of PTGES was adapted to the activity of the respective enzyme preparation to maintain linear reaction properties within the reaction time. […] The reaction was stopped by addition of 1 ul of a solution containing 15 mM SnCl2 and 400 mM KF in water. SnCl2 converts the remaining unstable PGH2 to stable PGF2alpha. Then, 3 ul of the a first detection solution containing PGE2-D2 (Cisbio Bioassays, TR-FRET reagent, diluted according to the manufacturer's recommendation, typically 1:20 in reconstitution buffer) was added. […] The resulting mix was incubated overnight at 4° C. to allow the formation of a complex of PGE2 and the detection reagents. […] Dilution series were made prior to the assay in a 100 fold concentrated form by serial dilution. IC50 values were calculated by 4-Parameter fitting.

Chain of human PTGES (O14684 whole entry): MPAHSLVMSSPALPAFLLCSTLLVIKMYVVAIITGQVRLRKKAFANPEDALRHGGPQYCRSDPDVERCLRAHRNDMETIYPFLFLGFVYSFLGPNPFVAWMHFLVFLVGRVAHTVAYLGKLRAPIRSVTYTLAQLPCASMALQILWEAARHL

Row | Compound | IC50 [nM]
1 | Cc1ncc(-c2ccc(C(C(=O)Nc3cccc(C(C)CC(=O)O)c3C)C3CCCC3)cc2F)cc1Cl (mixture of isomers) [Example 120, (3R/S)-3-[3-({(2R/S)-2-[4-(5-Chloro-6-methylpyridin-3-yl)-3-fluorophenyl]-2-cyclopentylacetyl}amino)-2-methylphenyl]butanoic acid] | 15.9
2 | CCC(CC(=O)O)c1cccc(NC(=O)[C@@H](c2ccc(-c3cncc(CC(F)(F)F)c3)cc2)C2CCCC2)c1C (single isomer, unassigned) [Example 200] | 17.7
3 | CCc1cncc(-c2ccc(C(C(=O)Nc3cccc(CCC(=O)O)c3C)C3CCCC3)cc2)c1 (racemic) [Example 13, (R/S) 3-[3-({Cyclopentyl[4-(5-ethylpyridin-3-yl)phenyl]acetyl}amino)-2-methylphenyl]propanoic acid] | 78.2
4 | Cc1c(CCC(=O)O)cccc1NC(=O)C(c1ccc(-c2cncc(C(F)(F)F)c2)cc1)C1CCC1 (single isomer, unassigned; (+)) [Example 56, (+) 3-{3-[(Cyclobutyl{4-[5-(trifluoromethyl)pyridin-3-yl]phenyl}acetyl)amino]-2-methylphenyl}propanoic acid] | 7520
5 | CCOc1cncc(-c2ccc(C(C(=O)Nc3cccc(C(CC)CC(=O)O)c3C)C3CCCC3)cc2)c1 (mixture of isomers) [Example 107, (3R/S)-3-[3-({(2R/S)-2-Cyclopentyl-2-[4-(5-ethoxypyridin-3-yl)phenyl]acetyl}amino)-2-methylphenyl]pentanoic acid] | 106
6 | CCc1cncc(-c2ccc(C(C(=O)Nc3cccc(CCC(=O)O)c3C)C3CCC3)cc2F)c1 (single isomer, unassigned; (-)) [Example 210, (−) 3-[3-({cyclobutyl[4-(5-ethylpyridin-3-yl)-3-fluorophenyl]acetyl}amino)-2-methylphenyl]propanoic acid, Single Enantiomer] | 35
7 | Cc1ncc(-c2ccc(C(C(=O)Nc3cccc(C(C)CC(=O)O)c3C)C3CCCC3)cc2)cc1F (mixture of isomers) [Example 96, (3R/S)-3-[3-({(2R/S)-2-[4-(5-Fluoro-6-methylpyridin-3-yl)phenyl]-2-cyclopentylacetyl}amino)-2-methylphenyl]butanoic acid] | 36.9
8 | Cc1ncc(-c2ccc(C(C(=O)Nc3cccc(CCC(=O)O)c3C)C3CCCC3)cc2)cc1F (racemic) [Example 211, (R/S) 3-[3-({cyclopentyl[4-(5-fluoro-6-methylpyridin-3-yl)phenyl]acetyl}amino)-2-methylphenyl]propanoic acid] | 190
9 | Cc1c(CC(C)C(=O)O)cccc1NC(=O)C(c1ccc(-c2cncc(C(F)(F)F)c2)cc1)C1CCCC1 (single isomer, unassigned; stereoisomer 1) [Example 69, 3-{3-[(Cyclopentyl{4-[5-(trifluoromethyl)pyridin-3-yl]phenyl}acetyl)amino]-2-methylphenyl}-2-methylpropanoic acid, Stereoisomer 1] | 8740
10 | CCOc1cncc(-c2ccc(C(C(=O)Nc3cccc(C(CC(=O)O)C4CC4)c3C)C3CCCC3)cc2)c1 (mixture of isomers) [Example 111, (3R/S)-3-[3-({(2R/S)-2-cyclopentyl-2-[4-(5-ethoxypyridin-3-yl)phenyl]acetyl}amino)-2-methylphenyl]-3-cyclopropylpropanoic acid] | 53.9
11 | Cc1ncc(-c2ccc([C@H](C(=O)Nc3cccc(N(C)CC(=O)O)c3C)C3CCCC3)cc2)cc1Cl [Example 187, N-[3-({(2R)-2-[4-(5-chloro-6-methylpyridin-3-yl)phenyl]-2-cyclopentylacetyl}amino)-2-methylphenyl]-N-methylglycine] | 23.9
12 | Cc1c(NC(=O)C(c2ccc(-c3cncc(Cl)c3)c(F)c2)C2CCCC2)cccc1C(C)CC(=O)O (single isomer, unassigned; stereoisomer 3) [Example 128, 3-[3-({[4-(5-Chloropyridin-3-yl)-3-fluorophenyl](cyclopentyl)acetyl}amino)-2-methylphenyl]butanoic acid, Stereoisomer 3] | 1730
13 | Cc1ncc(-c2ccc(C(C(=O)Nc3cccc(CCC(=O)O)c3C)C3CCC3)cc2)cc1F (racemic) [Example 62, (R/S) 3-[3-({[4-(5-Fluoro-6-methylpyridin-3-yl)phenyl](cyclobutyl)acetyl}amino)-2-methylphenyl]propanoic acid] | 148
14 | Cc1c(CC(C)C(=O)O)cccc1NC(=O)C(c1ccc(-c2cncc(C(F)(F)F)c2)cc1)C1CCCC1 (single isomer, unassigned; stereoisomer 2) [Example 70, 3-{3-[(Cyclopentyl{4-[5-(trifluoromethyl)pyridin-3-yl]phenyl}acetyl)amino]-2-methylphenyl}-2-methylpropanoic acid, Stereoisomer 2] | 52.9
15 | Cc1cc(-c2ccc(C(C(=O)Nc3cccc(CCC(=O)O)c3C)C3CCC3)cc2)cnc1C (racemic) [Example 59, (R/S) 3-[3-({Cyclobutyl[4-(5,6-dimethylpyridin-3-yl)phenyl]acetyl}amino)-2-methylphenyl]propanoic acid] | 193
16 | Cc1c(NC(=O)C(c2ccc(-c3cncc(C(F)(F)F)c3)c(F)c2)C2CCCC2)cccc1C(C)CC(=O)O (single isomer, unassigned; stereoisomer 2) [Example 117, 3-{3-[(Cyclopentyl{3-fluoro-4-[5-(trifluoromethyl)pyridin-3-yl]phenyl}acetyl)amino]-2-methylphenyl}butanoic acid, Stereoisomer 2] | 15.6
17 | Cc1c(NC(=O)C(c2ccc(-c3cncc(Cl)c3)cc2)C2CCCC2)cccc1C(CC(=O)O)C1CC1 (mixture of isomers) [Example 110, (3R/S)-3-[3-({(2R/S)-2-[4-(5-chloropyridin-3-yl)phenyl]-2-cyclopentylacetyl}amino)-2-methylphenyl]-3-cyclopropylpropanoic acid] | 54.4
18 | Cc1cncc(-c2ccc(C(C(=O)Nc3cccc(C(C)CC(=O)O)c3C)C3CCCC3)cc2)c1 (mixture of isomers) [Example 94, (3R/S)-3-[3-({(2R/S)-2-Cyclopentyl-2-[4-(5-methylpyridin-3-yl)phenyl]acetyl}amino)-2-methylphenyl]butanoic acid] | 32.3
19 | CCOc1cncc(-c2ccc(C(C(=O)Nc3cc(F)cc(CCC(=O)O)c3C)C3CCCC3)cc2)c1 (racemic) [Example 170, (R/S) 3-[3-({[4-(5-ethoxypyridin-3-yl)phenyl](cyclopentyl)acetyl}amino)-5-fluoro-2-methylphenyl]propanoic acid] | 573
20 | Cc1c(CCC(=O)O)cccc1NC(=O)C(c1ccc(-c2cncc(C(F)(F)F)c2)cc1)C1CC1 (racemic) [Example 32, (R/S) 3-{3-[(Cyclopropyl{4-[5-(trifluoromethyl)pyridin-3-yl]phenyl}acetyl)amino]-2-methylphenyl}propanoic acid] | 470
21 | CCC(CC(=O)O)c1cccc(NC(=O)C(c2ccc(-c3cncc(CC(C)C)c3)c(F)c2)C2CCCC2)c1C (single isomer, unassigned) [Example 194, 3-[3-({cyclopentyl[3-fluoro-4-(5-isobutylpyridin-3-yl)phenyl]acetyl}amino)-2-methylphenyl]pentanoic acid, single enantiomer] | 6.82
22 | Cc1c(NC(=O)C(c2ccc(-c3cncc(Cl)c3)c(F)c2)C2CCCC2)cccc1C(C)CC(=O)O (single isomer, unassigned; stereoisomer 4) [Example 129, 3-[3-({[4-(5-Chloropyridin-3-yl)-3-fluorophenyl](cyclopentyl)acetyl}amino)-2-methylphenyl]butanoic acid, Stereoisomer 4] | 5.6
23 | Cc1c(NC(=O)C(c2ccc(-c3cncc(Cl)c3)c(F)c2)C2CCC2)cccc1C(C)CC(=O)O (single isomer, unassigned; stereoisomer 3) [Example 152, 3-[3-({[4-(5-Chloropyridin-3-yl)-3-fluorophenyl](cyclobutyl)acetyl}amino)-2-methylphenyl]butanoic acid, Stereoisomer 3] | 914
24 | CCOc1cncc(-c2ccc(C(C(=O)Nc3cccc(CCC(=O)O)c3C)C3CCCC3)c(F)c2)c1 (racemic) [Example 52, (R/S) 3-[3-({Cyclopentyl[4-(5-ethoxypyridin-3-yl)-2-fluorophenyl]acetyl}amino)-2-methylphenyl]propanoic acid] | 273
25 | O=C(O)CCc1cccc(NC(=O)[C@@H](c2ccc(-c3cncc(C(F)(F)F)c3)cc2)C2CCCC2)c1C(F)(F)F [Example 215, 3-[3-{[(2R)-2-cyclopentyl-2-{4-[5-(trifluoromethyl)pyridin-3-yl]phenyl}acetyl]amino}-2-(trifluoromethyl)phenyl]propanoic acid] | 258
26 | Cc1c(CCC(=O)O)cccc1NC(=O)C(c1ccc(-c2cncc(OC(F)F)c2)cc1)C1CCCC1 (racemic) [Example 28, (R/S) 3-{3-[(Cyclopentyl{4-[5-(difluoromethoxy)pyridin-3-yl]phenyl}acetyl)amino]-2-methylphenyl}propanoic acid] | 380
